Measurements from patent publication US9746484B2, “Binding partners specific for vitamin D epimers in vitamin D assays” (Siemens Healthcare Diagnostics Inc., priority 2014, dated 2017).
“And” between values parts separate entries of the source, which are not always exact repeats. Equal entries are not always repeated.

Test system: biotinylated monoclonal anti-25OH vitamin D antibody
Experiment: LOCI 25(OH)D immunoassay, 3-epimer cross-reactivity without blocking antibody
Assay type: binding, sheep
Details: no anti-3-epimer antibody; for Avg. Cross-reactivity, No anti-3-epimer VD Ab Added: average of ten patient sera spiked with 100 ng/mL 3-epimer vitamin D3
Method: The 25OH Vitamin D (25(OH)D) immunoassay format employed was a homogeneous competitive chemiluminescent immunoassay based on LOCI® assay technology. The assay was performed on the Siemens Dimension® EXL automated integrated clinical chemistry system (Siemens Healthcare Diagnostics Inc., Deerfield, Ill.). The assay measured the total concentration of 25(OH)D2 and/or 25(OH)D3 in serum and plasma samples. The LOCI® assay reagents included a releasing reagent, two synthetic bead reagents and a biotinylated monoclonal anti-25OH vitamin D antibody reagent. The first bead reagent (designated “Sensibeads”) was coated with streptavidin and contained a photosensitive dye. The second bead reagent (designated “Chemibeads”) was coated with a 25(OH)D3 analog and contained chemiluminescent dye. Sample was incubated with the releasing reagent to release 25(OH)D molecules including 3-epimeric compounds from vitamin D binding proteins. The reaction mixture was then incubated with biotinylated antibody to form a 25(OH)D-biotinylated antibody complex. […] Chemibeads were added to bind excess free biotinylated antibody. Sensibeads were then added to bind to the biotin portion of the biotinylated antibody. Aggregates of Chemibead-analog/antibody-biotin/streptavidin-Sensibeads were formed as a result. Illumination of the reaction mixture with light at 680 nm generates singlet oxygen from Sensibeads, which diffused into the Chemibeads and triggered a chemiluminescent reaction. The resulting chemiluminescent signal was measured at 612 nm and is inversely proportional to the concentration of total 25(OH)D in the sample.
The effect of adding anti-3-epimer-VD antibody 8F10.1 (anti-3-epimer VD Ab) on the 3-epimer cross-reactivity for the assay is shown in Table 1. […] The 3-epimer cross-reactivity was calculated by the difference between 25(OH)D2 or 25(OH)D3 values with and without the spiked 3-epimer compound divided by the amount of added 3-epimer compound.

In the case of `C=C1CC[C@@H](O)C/C1=C/C=C1\CCC[C@]2(C)[C@@H]([C@H](C)CCCC(C)(C)O)CC[C@@H]12` [3-epimer D3, 3-epi-25-hydroxyvitamin D3], the “Avg. Cross-reactivity, No anti-3-epimer VD Ab Added” value is reported as 13.7%, the “Avg. Cross-reactivity, No anti-3-epimer VD Ab Added” value (listed as 3-epimer vitamin D3 compound) is reported as 13.7% and the “3-epimer Cross-Reactivity, No anti-3-epimer VD Ab Added” value (individual patient sera (Sample ID 1-10) spiked with 100 ng/mL 3-epimer vitamin D3) is reported as 17.9% (2×) and 11.9% and 12.6% and 16.1% and 10.2% and 9.1% and 10.5% and 15.3% and 15.5%.
